Laboratory results: patent publication US4798832A, “Pyrido[1,2-a]pyrimidine compounds, corresponding intermediates and use as SRS-A antagonists” (Tokyo Tanabe Company, Limited, priority 1986, dated 1989)
Converted amounts (≈) assume the structure as drawn. Where a name gives a salt, the structure may show the parent alone. Blank lines part the entries; values can stand above or below the compound they belong to.

What was measured:
[1] = test system: leukotriene D4; test: In vitro test: antagonistic effect on leukotriene D4-induced contraction of excised guinea pig terminal ileum; assay type: cell-based, guinea pig (male, Hartley strain); details: confirmatory experiment by the inventors; result in words
Protocol: (§1) The antagonistic effect on leukotriene D4 of the present compounds [I] was tested by using the terminal ileum excised from a male guinea pig of the Hartley strain. Specifically, the terminal ileum was suspended, under aerated conditions, in 10 ml of Tyrode's solution containing 5×10^-7 M atropine and 1×10^-6 M mepyramine. Then, a test compound and leukotriene D4 (manufactured by Wako Junyaku Co., Ltd.) were successively added thereto with an interval of 30 seconds. After the lapse of 4 to 6 minutes, the degree of contraction of the ileum was measured with a Model TD-112S Isotonic Transducer (manufactured by Nippon Koden Co., Ltd.). The test compound and leukotriene D4 were used in such amounts as to give concentrations of 10^-9 to 10^-3 g/ml and 0.3 ng/ml, respectively.
(§2) The antagonistic effect on leukotriene D4 of each test compound was evaluated in terms of the concentration of the test compound at which the ileum contraction reaction induced by leukotriene D4 was inhibited by 50% (hereinafter referred to as IC50) Specifically, at varying concentrations of each test compound, the percent inhibition of contraction was calculated from the measured degree of contraction of the ileum according the following equation [formula] On the basis of the data thus obtained, a dose-response curve was prepared and used to determine the IC50 value of the test compound.

[2] = as above; assay type: cell-based, guinea pig (male, Hartley strain); details: guinea pig terminal ileum contraction, leukotriene D4 0.3 ng/ml, with atropine and mepyramine; for IC50: Cavia porcellus
Protocol: as §1, §2

[3] = Toxicity test: acute toxicity (LD50) in mice; details: mouse, in vivo
Protocol: (§3) The acute toxicity (LD50) of several typical examples of the present compounds [I] was tested of 5-weeks-old male ddY strain mice and male SD straih rats. For this purpose, the compounds of Examples 2 and 4 were selected as typical examples. […] For rats, their LD50 values were not less than 4.0 g/kg when administered orally, and not less than 200 mg/kg when administered intravenously.

[4] = Toxicity test: acute toxicity (LD50) in rats; details: rat, in vivo
Protocol: as §3

Structure (SMILES): O=C(O)c1cnc2c(OCc3ccccc3)cccn2c1=O [Compound A, 9-Benzyloxy-4-oxo-pyrido[1,2-a]pyrimidine-3-carboxylic acid, reference compound]
antagonistic effect on SRS-A as represented by leukotriene D4 [1]: no antagonistic effect on SRS-A
IC50 [2]: ≥ 10 µg/mL

Structure (SMILES): CCCc1c(OCc2cccn3c(=O)c(C(=O)O)cnc23)ccc(C(C)=O)c1O [Example 1, 9-(4-Acetyl-3-hydroxy-2-n-propylphenoxymethyl)-4-oxo-pyrido[1,2-a]pyrimidine-3-carboxylic acid]
IC50 [2]: 0.03 µg/mL (≈ 0.0757 µM)

Structure (SMILES): CCCc1c(OCc2cccn3c(=O)c(CC(=O)O)cnc23)ccc(C(C)=O)c1O [Example 2, [9-(4-Acetyl-3-hydroxy-2-n-propylphenoxymethyl)-4-oxo-pyrido[1,2-a]pyrimidin-3-yl]acetic acid]
LD50 ([3]; intravenous): ≥ 100 mg/kg
LD50 ([3]; oral): ≥ 4000 mg/kg
LD50 ([4]; intravenous): ≥ 200 mg/kg
LD50 ([4]; oral): ≥ 4000 mg/kg
IC50 [2]: 0.04 µg/mL (≈ 0.0975 µM)

Structure (SMILES): CCCc1c(OCc2cccn3c(=O)c(CCC(=O)O)cnc23)ccc(C(C)=O)c1O [Example 4, 3-[9-(4-Acetyl-3-hydroxy-2-n-propylphenoxymethyl)-4-oxo-pyrido[1,2-a]pyrimidin-3-yl]propionic acid]
LD50 ([3]; intravenous): ≥ 100 mg/kg
LD50 ([3]; oral): ≥ 4000 mg/kg
LD50 ([4]; intravenous): ≥ 200 mg/kg
LD50 ([4]; oral): ≥ 4000 mg/kg
Antagonistic effect on leukotriene D4 IC50 [2]: 0.01 µg/mL

Structure (SMILES): CCCc1c(OCc2cccn3c(=O)c(CCC(=O)O)cnc23)ccc(C(C)=O)c1O [Example 7, 3-[9-(4-Acetyl-3-hydroxy-2-n-propylphenoxymethyl)-4-oxo-pyrido[1,2-a]pyrimidin-3-yl]propionic acid potassium salt]
Antagonistic effect on leukotriene D4 IC50 ([2]; potassium salt): 0.03 µg/mL

Next, values leading:

IC50 [2]: 0.8 µg/mL (≈ 1.88 µM)
Structure (SMILES): CCCc1c(OCc2c(C)ccn3c(=O)c(CC(=O)O)cnc23)ccc(C(C)=O)c1O [Example 3, [9-(4-Acetyl-3-hydroxy-2-n-propylphenoxymethyl)-8-methyl-4-oxo-pyrido[1,2-a]pyrimidin-3-yl]acetic acid]

IC50 [2]: 0.3 µg/mL (≈ 0.596 µM)
Structure (SMILES): CCCc1c(OCc2cc(Br)cn3c(=O)c(CCC(=O)O)cnc23)ccc(C(C)=O)c1O [Example 5, 3-[9-(4-Acetyl-3-hydroxy-2-n-propylphenoxymethyl)-7-bromo-4-oxo-pyrido[1,2-a]pyrimidin-3-yl]propionic acid]

IC50 [2]: 0.4 µg/mL (≈ 0.942 µM)
Structure (SMILES): CCCc1c(OCc2ccc3ncc(CCC(=O)O)c(=O)n3c2)ccc(C(C)=O)c1O [Example 6, 3-[7-(4-acetyl-3-hydroxy-2-n-propylphenoxymethyl)-4-oxo-pyrido[1,2-a]pyrimidin-3-yl]propionic acid]
